The test system of assay [1] is mice melanoma cell (B16-F10). Put plainly: In vitro darktoxicity and PDT killing effect (CCK-8), B16-F10. Type of assay: cell-based. The text has this: (§1) Human non-small cell lung cancer cellA549 and mice melanoma cell B16-F10 provided by Cell bank of Shanghai in Chinese Academy of Sciences were selected as cell strains.
(§2) 660 nm semiconductor laser therapeutic equipments manufactured by Baifei biomedical company of Shanghai was selected as a laser light source, with the largest output power of 2 W.
(§3) 1) Cell strains of tumors: culture of human non-small cell lung cancer cell (A549) and mice melanoma cell (B16-F10): frozen cells were taken out of liquid nitrogen, placed in a water bath at […]. […] The medium was renewed once every two days.
(§4) 2) Preparation of reagents: compounds of the present application to be tested and positive control drug Talaporfin were dissolved in a suitable amount of 0.1 M NaOH, adjusted pH to 7.4 by 0.1 M HCl. Normal saline was added to prepare drug stock solution in a suitable concentration.
(§5) 3) Detecting darktoxicity and PDT killing effects to the two tumor cells of compounds to be tested and positive control drug: 100 μL of 5×10^3/mL cell suspension was added into each well of 96-well plate, placed in a incubator at 37° C., 5% CO2 for 24 h. after removing cell medium, fresh mediums containing different concentration of samples were added, opened with three complex holes, and incubated for 24 h at 37° C. and 5% CO2 (volume concentration). After adding fresh medium, no light irradiated (darktoxicity) or 660 nm wavelength laser was used to irradiate (light dose was 8 J/cm^2) (phototoxicity). Cells were incubated for another 24 h. Cell medium containing drugs were removed and fresh medium was added. 200 μL medium containing 10% (v/v) CCK-8 (Dojindo Laboratories, Japan) was added into each well, and incubated for 1.5 h. Microplate reader (Tecan, Switzerland) was used to measure absorbance of each well at a wavelength of 450 nm.

Assay [2] deals with human non-small cell lung cancer cell (A549). Nature of the assay: In vitro darktoxicity and PDT killing effect (CCK-8), A549. Type of assay: cell-based.
Text: as §1, §2, §3, §4, §5

[3] abbreviates: 660 nm laser, light dose 8 J/cm^2, read-out: Phototoxicity (IC50).
Where [4] appears, read: no light irradiated, 24 h drug incubation, read-out: Darktoxicity (IC50).

Where two headings read alike, the source gives them in different places.

The results in this text go back to US9951081B1, “Chlorin e6 derivative and pharmaceutically acceptable salt thereof and process for preparing and use of the same” (priority 2016, dated 2018).

As usually defined, the IC50 is the concentration that inhibits the measured activity by half. As for `CCC1=C(C)c2cc3[nH]c(cc4nc(c(CC(=O)N[C@@H](CCC(=O)O)C(=O)O)c5[nH]c(cc1n2)c(C)c5C(=O)O)[C@@H](CCC(=O)O)[C@@H]4C)c(C)c3C(C)OCCOC` (stereo partly drawn) [I13, N-[3-[1-(2-methoxy)ethyoxyl]ethyl-3-devinylchlorine6-15^2-acyl]-L-glutamic acid], the “Ratio of Darktoxicity and Phototoxicity” value in assay [1] is 92.93; in assay [2] it was 213.90. Moreover, the IC50 in assay [1] (setting [3]) stood at 1.72 µM; in assay [1] (setting [4]), 160 µM; in assay [2] (setting [3]) it was 1.25 µM; in assay [2] (setting [4]), 267 µM.
Take `CCCCCCOC(C)c1c(C)c2cc3nc(c(CC(=O)N[C@@H](CC(=O)O)C(=O)O)c4[nH]c(cc5nc(cc1[nH]2)C(C)=C5CC)c(C)c4C(=O)O)[C@@H](CCC(=O)O)[C@@H]3C` (stereo partly drawn) [I3, N-[3-(1-n-hexyloxy)ethyl-3-devinylchlorine6-15^2-acyl]-L-aspartic acid]: the results for the “Ratio of Darktoxicity and Phototoxicity” value in assay [1] and in assay [2] were 215.65 and 438.34, respectively. For the same molecule, the IC50 in assay [1] (setting [3]) was determined as 0.89 µM; in assay [1] (setting [4]), 192 µM; in assay [2] (setting [3]) it was 0.65 µM; in assay [2] (setting [4]), 285 µM. Further, the “PDT anti-cancer activity (in words)” value in assay [1] (light dose of 8 J/cm^2) and in assay [2] (light dose of 8 J/cm^2) was “best” each time. Moreover, the “PDT anti-tumor activity, times that of Talaporfin” value is on record as 12.07 times in assay [1] (relative to Talaporfin) and 13.63 times in assay [2] (relative to Talaporfin). For the same molecule, the “ratio of darktoxicity-phototoxicity, times that of Talaporfin” value in assay [1] (relative to Talaporfin) is 13.64 times; in assay [2] (relative to Talaporfin) it was 14.04 times.
